Source: patent publication US20240287430A1, “Systems and Methods for Cellular Lumen Formation and Cellular Differentiation” (The Regents of the University of California, priority 2021, published 2024)

How the values were obtained:
[1] = system: 3D hPSC; assay: BMP4 exposure of micropatterned 3D hPSC without neural induction (immunostaining, qPCR); type: cell-based, human
Text: FIG. 9 provides a schematic representing in vitro morphogenesis in three differentiation protocols in accordance with embodiments. (i) Exposure to BMP, without neural induction, results in an amnion-like tissue containing cells from three germ layers without formation of a neural fold. (ii) Neural tube morphogenesis is observed when neural induction is followed by exposure to BMP4. (iii) Homogenous expression of forebrain markers is observed under exposure to neural induction without BMP.
FIG. 10 provides a schematic and results of the experimental timeline for three protocols detailed in FIG. 9. (B) Experimental timeline for the three protocols. Neural induction media includes N2 supplement and TGFβ inhibitor SB-431542 (SB). (C) Vertical sections of immunostained samples from the three differentiation protocols.
FIG. 19 provides a schematic, images, and bar graph of cellular differentiation in the absences of neural induction in which no neural folding is observed, in accordance with embodiments. (A) Experimental timeline for BMP4 exposure without neural induction. (B) Bright field images showing development over 3 days. At day 4, cells migrate away from the micropatterned area. (C) Horizonal and (D) vertical sections of samples at day 3. Micropattern diameter is indicated in microns. Cells close to the glass express mesendoderm markers Brachyury (BRA) and SOX17. In 450 μm patterns, SOX2 is observed at the center of the tissue. Cells at the colony edges and at the top express amniotic ectoderm marker CDX2. A single lumen is maintained and no spontaneous folding is observed. (E) qPCR analysis for differentiation markers as a function of BMP concentration. BMP results in upregulation of the WNT and NODAL pathways, upregulation of mesendoderm markers EOMES/Brachyury/SOX17, amniotic ectoderm marker GATA3, downregulation of ectoderm marker SOX2 and pluripotency marker NANOG. Scale bar 50 μm unless indicated otherwise.
The system was next applied to study which tissues contribute to neural folding. This question has been studied for over a century in animal models, and multiple hypothesis have been developed regarding the mechanical role of the neural tissue, neighboring surface ectoderm and underlying mesoderm. However, the limited accessibility in utero led to inconclusive and often contradictive results. The in vitro system allows to systemically control tissue composition through the choice of small molecules in the culture media (FIGS. 9 & 10). This system allows discernment of the tissues which are necessary and sufficient for neural tube morphogens. […] Mesoderm fates are suppressed by TGFβ inhibition, and only appear if the period of TGFβ inhibition is decreased (FIG. 17). […] It was next examined whether the non-neural ectoderm is required for folding. […]

[2] = system: hPSC-derived neural tube (neural folding morphogenesis); assay: Modeling neural tube defects in the stem-cell derived neural tube morphogenesis system; type: cell-based, human; details: for neural apical curvature / neural tissue morphology (thickness, hinges): treated samples vs control samples, ROCK inhibitor 10 μM day 5-8
Protocol: Because animal models are limited in their capacity to explain how human genetics affects neural tube closure, it was tested whether the reproducible human stem-cell system could be used to model neural tube defects (NTDs). This example focuses on various compounds that induce NTDs: ROCK inhibitor, novobiocin, and valproic acid (FIG. 24). […] In turn, ROCK upregulates apical actomyosin contractility in neural cells which leads to apical constriction of the neural plate. Neural plate contraction then drives neural folding. It was thus set out to determine whether apical contractility plays a role during in vitro neural folding. […] The formation of an actomyosin gradient is followed by apical neural contraction which leads to folding.
To perturb ROCK/Shroom3 signaling and apical neural contractility a highly specific molecular inhibitor of ROCK (Y-27632) was applied. […] The effects of novobiocin and valproic acid were also examined. […] It was further concluded that the in vitro lumen model system is suitable for studying how abnormalities in signaling pathways lead to neural tube defects in a human genetic context.
Day 1. Seeding onto micropatterns. hPSCs are released from well-plate surfaces using non-enzymatic agitation following manufacturer's instructions (ReleSR, STEMCELL Technologies, Cambridge, MA). Cells are resuspended as a single-cell suspension at densities of 750K-1M cells/mL in mTeSR1 containing 10 μM ROCK inhibitor Y27632 (Abcam, Cambridge, UK). 200 μL of cell suspension is then pipetted onto prepatterned dishes and allowed to settle for 15 minutes before adding 1 mL of mTeSR1 and allowing cells to settle for 10 additional minutes. Excess media is aspirated, leaving enough liquid to cover patterns and replaced with fresh 2 mL of mTeSR until the following day.
Day 2. Matrigel addition. mTESR1 media is exchanged with a neural induction media containing Matrigel (4%, v/v). Neural induction media is supplemented with 5 μM of TGFβ-inhibitor SB-431542.
Day 3-4. Lumen Formation. Dishes are left unperturbed at day 3 to allow transition into 3D stem-cell tissue containing a single lumen.
Day 5-9. Exposure to Morphogens. Neural induction media is supplemented with 5 ng/ml BMP4 in addition to 5 μM of SB-431542. Media is exchanged daily. Cell fates are observed on day 6 and folding is observed during days 7-9.
All samples were fixed, immunostained and imaged as whole mounts in the culture dish. Samples are fixed in 4% PFA, 1 hr at room temperature (RT), washed three times for 15 min in PBS, and permeabilized in 1.5% Triton-PBS over-night (o/n) at 4 C. The following day, samples are washed in 0.3% Triton, and blocked for 2 hrs RT (10% NGS, 1% BSA, 0.3% Triton-X in PBS). Primary antibodies are used at 1:100-1:200 in blocking solution o/n at 4° C. Next, samples are washed in 0.1% Tween in PBS, and incubated with secondary antibodies 1:500-1:1000 in PBT o/n at 4° C. DAPI and phalloidin are also added at this stage. Finally, samples are washed in PBS for 1 hr, and imaged.
ROCK inhibition is achieved using the small molecule Y-27632 reconstituted in water at a stock concentration of 10 mM. ROCK inhibitor was applied at a concentration of 10 μM (1:1000 dilution) at day 5, together with BMP, and maintained for 72 hrs until the end of the experiment at day 8. Media was changed daily. Control experiments were carried under identical conditions, adding water instead of ROCK inhibitor.

[3] = as a function of BMP concentration, no neural induction
[4] = ROCK inhibition, Y-27632 10 μM day 5-8, vs control

## BMP4: bone morphogenetic protein 4, morphogen
[1]; addition of BMP4 without neural induction
  cell fates and folding morphogenesis: mesoderm and ectoderm cell fates, but lack neural tissue and does not exhibit folding
[1]; [3]
  qPCR: WNT and NODAL pathways: upregulation
  qPCR: ectoderm marker SOX2 and pluripotency marker NANOG: downregulation
  qPCR: mesendoderm markers EOMES/Brachyury/SOX17, amniotic ectoderm marker GATA3: upregulation

## C[C@@H](N)[C@H]1CC[C@H](C(=O)Nc2ccncc2)CC1 [Y-27632]
[2]; [4]
  Shroom3 and F-actin localization to the apical neural surface: disrupted
  actin localization to the basal surface of epidermal/neural tissues and the epidermal apical surface: not significantly perturbed
[2]; Y-27632 10 μM applied at day 5 together with BMP, maintained 72 hrs until day 8, vs control (water)
  neural folding morphology: severe folding defects similar to the open book morphology observed in embryonic cranial NTDs
[2]
  neural apical curvature: significantly less curved than control samples
  neural tissue morphology (thickness, hinges): thick and flat neural tissue, which lacks neural hinges

## CCCC(CCC)C(=O)O [valproic acid]
[2]
  neural apical curvature: significantly less curved than control samples
  neural tissue morphology (thickness, hinges): thick and flat neural tissue, which lacks neural hinges

## CO[C@@H]1[C@@H](OC(N)=O)[C@@H](O)[C@H](Oc2ccc3c(O)c(NC(=O)c4ccc(O)c(CC=C(C)C)c4)c(=O)oc3c2C)OC1(C)C [novobiocin]
[2]
  neural apical curvature: significantly less curved than control samples
  neural tissue morphology (thickness, hinges): thick and flat neural tissue, which lacks neural hinges
